According to the NIST ThermoML archive (doi:10.1016/j.jct.2016.12.018):
± gives the expanded uncertainty stated by the source.

Columns and labels:
[1] = 293.15 K; 100 kPa; Liquid; Vibrating tube method
[2] = refractive index (Na D-line) (dimensionless); settings: 293.15 K; 100 kPa; Liquid; Standard Abbe refractometry

mass density [1]	refractive index [2]	Compound
924.84 ± 2 kg/m3	1.45756 ± 0.0011	CC12CCC(CC1)C(C)(C)O2 [1,3,3-trimethyl-2-oxabicyclo[2.2.2]octane]
	1.33299 ± 0.001	O [water]
